Assay results reported in US8518965B2, “Compositions and methods for treating cancer” (Trustees of Dartmouth College, priority 2009, dated 2013).
Read-outs that look alike come from different tables or passages of the source. Marks after values point to notes of the source that are not given here.

Experiments:
[1] = test system: SF 295 human glioblastoma cells; experiment: Colony formation assay, SF 295 cells; format: cell-based; conditions: for Killing / inhibition of the growth of SF 295 human glioblastoma cells (in words): Example 10; for IC50: Homo sapiens, SF 295 cells, 72 hours with compound, colonies counted after 10 days (Example 10), read-out: IC50
Procedure: (§1) NCI/ADR-RES human breast cancer cells (500 cells), HCT116 human colon cancer cells (400 cells) or SF 295 human glioblastoma cells (1000 cells) were plated in 60 mm Petri dishes containing 2.7 ml of medium (modified McCoy's 5a medium containing 10% fetal bovine serum and 100 units/ml penicillin and 100 μg/ml streptomycin). The cells were incubated in a CO2 incubator at 37° C. for 5 hours for attachment to the bottom of Petri dishes. Compounds were prepared fresh in medium at ten times the final concentration, and then 0.3 ml of this stock solution was added to the 2.7 ml of medium in the dish. The cells were then incubated with compounds for 72 hours at 37° C. At the end of incubation, the compound-containing media were decanted, the dishes were rinsed with 4 ml of Hank's Balance Salt Solution (HBSS), 5 ml of fresh medium was added, and the dishes were returned to the incubator for colony formation. The cell colonies were counted using a colony counter after incubation for 14 days for NCI/ADR-RES cells and 10 days for HCT116 cells and SF 295 cells. Cell survival was calculated and the IC50 values (the drug concentration producing 50% inhibition of colony formation) were determined for each tested compound.
One thousand SF 295 cells were plated in 60 mm Petri dishes containing 2.7 ml of medium (modified McCoy's 5a medium containing 10% fetal bovine serum and 100 units/ml penicillin and 100 μg/ml streptomycin). The cells were incubated in a CO2 incubator at 37° C. for 5 hours for attachment to the bottom of Petri dishes. Compounds were prepared fresh in medium at ten times the final concentration, and then 0.3 ml of this stock solution was added to the 2.7 ml of medium in the dish. The cells were then incubated with the compounds for 72 hours at 37° C. At the end of incubation, the compound-containing media were decanted, the dishes were rinsed with 4 ml of Hank's Balance Salt Solution (HBSS), 5 ml of fresh medium was added, and the dishes were returned to the incubator for colony formation. After incubation for 10 days, the cell colonies were counted using a colony counter. Cell survival was calculated and the values of IC50 were determined for each compound tested.

[2] = test system: HCT116 human colon cancer cells; experiment: Colony formation assay, HCT116 cells; format: cell-based; conditions: 72 hours with compound, colonies counted after 24 days (Example 9), read-out: IC50
Procedure: as §1
Four hundred HCT116 cells were plated in 60 mm Petri dishes containing 2.7 ml of medium (modified McCoy's 5a medium containing 10% fetal bovine serum and 100 units/ml penicillin and 100 μg/ml streptomycin). The cells were incubated in a CO2 incubator at 37° C. for 5 hours for attachment to the bottom of Petri dishes. Compounds were prepared fresh in medium at ten times the final concentration, and then 0.3 ml of this stock solution was added to the 2.7 ml of medium in the dish. The cells were then incubated with drugs for 72 hours at 37° C. At the end of incubation the compound-containing media were decanted, the dishes were rinsed with 4 ml of Hank's Balance Salt Solution (HBSS), 5 ml of fresh medium was added, and the dishes were returned to the incubator for colony formation. HCT116 cell colonies were counted using a colony counter after […] of incubation. Cell survival was calculated and IC50 values were determined for each compound tested.

[3] = Solubility in solvents and buffers; format: physicochemical
Procedure: Characterization of D11B. The solubility of D11B in different solvents was analyzed (Table 1).
(§2) The solubility of D11B in various combinations of solvents was also analyzed. […] For the analysis of co-solvents, stock solutions were prepared by dissolving D11B in a corresponding solvent. Stock solutions of D11B in dimethylsulfoxide (DMSO) were prepared at 25° C., and stock solutions of D11B in PEG-400, CREMOPHOR® EL and Polysorbate 80 were prepared at 100° C. Injection solutions, in water (0.3 mg/ml), were prepared by dropwise addition of the stock solution to a required volume of vigorously stirred hot water (80° C.).
The solubility of D11B×2AH in DMSO, PEG-400, EtOH, and buffer was determined (Table 7).

[4] = State of stock and injection solutions in water + co-solvents; format: physicochemical
Procedure: as §2
Additional solubility determinations were carried out with D11B×2AH in water+co-solvents. For this analysis, stock solutions were prepared by dissolving D11B×2AH in a corresponding solvent. Stock solutions of D11B×2AH in DMSO were prepared at 25° C. and stock solutions of D11B×2AH in PEG-400 were prepared at 100° C.
Injection solutions in water (0.3 mg/ml) were prepared by dropwise addition of each stock solution to a required volume of vigorously stirred water.

[5] = test system: normal C3H/HeN mice; experiment: Maximum tolerated dose (MTD40) in normal mice; conditions: suspension formulation, single intraperitoneal injection, 40 days
Procedure: The MTD40 (maximum tolerated dose at day 40) values were determined on normal C3H/HeN mice using standard procedures. […] The result of this exercise was two dosages, one apparently nonlethal and the other lethal, if severe and irreversible toxicity occurred and euthanasia was required. Six mice were dosed at each dosage. If no severe and irreversible toxicity occurred at the lower dosage and at least one with severe and irreversible toxicity at the higher dose, then the lower dose was considered to be the MTD.
Compounds were administered to C3H/HeN mice by intraperitoneal injection (5% alcohol, 5% CREMOPHOR® EL, and 90% saline, 0.5 ml/20 gram, single injection). Drug toxicity was evaluated on mice checked daily for 40 days. The toxicity parameters reported were the MTD40. […] At the end of experiment, all mice were euthanized.
The toxicity parameters reported were the MTD40. At the end of experiment, all mice will be euthanized.

[6] = Homo sapiens, HCT-116, HCT116 cells

Compound: c1ccc2c(c1)Cc1c-2nc2ccccc2c1Nc1ccc(Oc2ccc(Nc3c4c(nc5ccccc35)-c3ccccc3C4)cc2)cc1 [Compound D275]
- Killing / inhibition of the growth of SF 295 human glioblastoma cells (in words) [1]: effective
- IC50 [1]: 1420 nM
- melting point: 114 to 115 °C

Compound: c1ccc2c(Nc3ccc(Oc4ccc(Nc5cnnc6ccccc56)cc4)cc3)cnnc2c1 [Compound D284]
- IC50 [1]: > 5000 nM
- melting point: 362 °C

Compound: c1ccc2c(Nc3ccc(Oc4ccc(Nc5c6ccccc6nc6ncccc56)cc4)cc3)c3cccnc3nc2c1 [Compound D254]
- IC50 ([2]; HCT116 cells): 1460 nM

Compound: c1ccc2c(Nc3ccc(Oc4ccc(Nc5ncnc6ccccc56)cc4)cc3)ncnc2c1 [Compound D281]
- IC50 [1]: > 5000 nM
- melting point: 124 to 125 °C

Compound: c1cc(Nc2ccc(Oc3ccc(Nc4ccncc4)cc3)cc2)ccn1 [Compound 244B]
- IC50 ([2]; HCT116 cells): 3340 nM
- melting point: 263 to 264 °C

Compound: c1cc(Nc2ccc(Oc3ccc(Nc4ccncc4)cc3)cc2)ccn1 [Compound D244]
- IC50 [2, 6]: 4220 nM

Compound: c1ccc2c(Nc3ccc(Oc4ccc(Nc5c6ccccc6nc6ccccc56)cc4)cc3)c3ccccc3nc2c1 [D11Bx2AH 4, D11B dilactabionate]
- Solubility (mg/ml), 25° C. ([3]; D11Bx2AH salts, DMSO, listed as 4): 40 mg/mL
- Solubility (mg/ml), 25° C. ([3]; D11Bx2AH salts, PEG-400, samples were dissolved at 100° C., listed as 4): >10 mg/mL
- Solubility (mg/ml) ([3]; PEG-400 (Table 16), heating to 100° C. was required, listed as dilactabionate (4)): >10^ mg/ml
- State of the stock solution ([4]; dilactobionate (4) in DMSO, 20 mg/ml): clear
- State of the stock solution ([4]; dilactobionate (4) in DMSO, 40 mg/ml): clear
- State of the injection solution ([4]; dilactobionate (4) in H2O—DMSO 0.3 mg/ml, stock 20 mg/ml, DMSO 1.36 wt. %): clear
- State of the injection solution ([4]; dilactobionate (4) in H2O—DMSO 0.3 mg/ml, stock 40 mg/ml, DMSO 0.68 wt. %): clear

Compound: c1ccc2c(Nc3ccc(Oc4ccc(Nc5c6ccccc6nc6ccccc56)cc4)cc3)c3ccccc3nc2c1 [D11Bx2AH 1, D11B digluconate]
- Solubility (mg/ml), 25° C. ([3]; D11Bx2AH salts, DMSO, listed as 1): 31 mg/mL
- Solubility (mg/ml), 25° C. ([3]; D11Bx2AH salts, PEG-400, samples were dissolved at 100° C., listed as 1): >10 mg/mL
- solubility ([3]; EtOH, 25 °C, organic solvent or mixture, D11Bx2AH salts, EtOH, read-out: Solubility (mg/ml), 25° C.): > 1 mg/mL
- solubility ([3]; PEG-400, organic solvent or mixture, PEG-400 (Table 16), heating to 100° C. was required, read-out: Solubility): > 10 mg/mL
- solubility ([3]; buffer, 25 °C, pH 4, aqueous buffer, D11Bx2AH salts, Buffer (pH = 4), even at 100° C., read-out: Solubility (mg/ml), 25° C.): > 0.5 mg/mL
- solubility ([3]; buffer, 25 °C, pH 6, aqueous buffer, D11Bx2AH salts, Buffer (pH = 6), even at 100° C., read-out: Solubility (mg/ml), 25° C.): > 0.5 mg/mL
- State of the stock solution ([4]; digluconate (1) in DMSO, 22 mg/ml): clear
- State of the stock solution ([4]; digluconate (1) in DMSO, 31 mg/ml): clear
- State of the injection solution ([4]; digluconate (1) in H2O—DMSO 0.3 mg/ml, stock 22 mg/ml, DMSO 1.50 wt. %): clear
- State of the injection solution ([4]; digluconate (1) in H2O—DMSO 0.3 mg/ml, stock 31 mg/ml, DMSO 1.06 wt. %): clear

Compound: c1ccc2c(Nc3ccc(Oc4ccc(Nc5c6ccccc6nc6ccccc56)cc4)cc3)c3ccccc3nc2c1 [D11Bx2AH 6, D11B digallate]
- Solubility (mg/ml), 25° C. ([3]; D11Bx2AH salts, DMSO, listed as 6): 325 mg/mL
- Solubility (mg/ml) ([3]; PEG-400 (Table 16), heating to 100° C. was required, listed as digallate (6)): 20^a mg/ml
- solubility ([3]; PEG-400, 25 °C, organic solvent or mixture, D11Bx2AH salts, PEG-400, samples were dissolved at 100° C., read-out: Solubility (mg/ml), 25° C.): 20 mg/mL
- State of the stock solution ([4]; digalate (6) in DMSO, 20 mg/ml): clear
- State of the stock solution ([4]; digalate (6) in DMSO, 39.9 mg/ml): clear
- State of the stock solution ([4]; digalate (6) in DMSO, 77 mg/ml): clear
- State of the stock solution ([4]; digalate (6) in DMSO, 158 mg/ml): clear
- State of the stock solution ([4]; digalate (6) in DMSO, 325 mg/ml): clear
- State of the injection solution ([4]; digalate (6) in H2O—DMSO 0.3 mg/ml, stock 20 mg/ml, DMSO 1.65 wt. %): clear
- State of the injection solution ([4]; digalate (6) in H2O—DMSO 0.3 mg/ml, stock 39.9 mg/ml, DMSO 0.83 wt. %): clear
- State of the injection solution ([4]; digalate (6) in H2O—DMSO 0.3 mg/ml, stock 325 mg/ml, DMSO 0.1 wt. %): prec.

Compound: Cc1cc(Nc2ccc(Oc3ccc(Nc4cc(C)nc5ccccc45)cc3)cc2)c2ccccc2n1 [Compound D288]
- Killing / inhibition of the growth of SF 295 human glioblastoma cells (in words) [1]: effective
- IC50 [1]: 85 nM
- Values of MTD40 [5]: 25 mg/kg

Compound: c1nc(Nc2ccc(Oc3ccc(Nc4ncnc5[nH]cnc45)cc3)cc2)c2nc[nH]c2n1 [Compound D276]
- IC50 [1]: > 5000 nM
- melting point: 372 °C

Compound: c1ccc2c(Nc3ccc(Oc4ccc(Nc5ccnc6ccccc56)cc4)cc3)ccnc2c1 [Compound D245B]
- Killing / inhibition of the growth of SF 295 human glioblastoma cells (in words) [1]: effective
- IC50 [1]: 133 nM
- IC50 ([2]; HCT116 cells): 79 nM
- IC50 [2, 6]: 122 nM
- Values of MTD40 [5]: 25 mg/kg

Compound: c1ccc2c(Nc3ccc(Oc4ccc(Nc5c6ccccc6nc6ncccc56)cc4)cc3)c3cccnc3nc2c1 [Compound 254B]
- IC50 ([2]; HCT116 cells): 722 nM
- melting point: 338 to 340 °C

Compound: c1ccc2c(Nc3ccc(Oc4ccc(Nc5nccc6ccccc56)cc4)cc3)nccc2c1 [Compound D278]
- IC50 [1]: > 5000 nM
- melting point: 110 to 112 °C

Compound: c1ccc2c(Nc3ccc(Oc4ccc(Nc5c6ccccc6nc6ccccc56)cc4)cc3)c3ccccc3nc2c1 [D11Bx2AH 7, D11B bis(3,4-dihydroxyphenylacetate)]
- Solubility (mg/ml), 25° C. ([3]; D11Bx2AH salts, DMSO, listed as 7): 66 mg/mL
- State of the stock solution ([4]; bis(3,4-dihydroxyphenylacetate) (7) in DMSO, 66 mg/ml): clear
- State of the injection solution ([4]; bis(3,4-dihydroxyphenylacetate) (7) in H2O—DMSO 0.3 mg/ml, DMSO 0.5 wt. %): clear
